Laboratory results as given in ChEMBL document CHEMBL6078701, “Design and synthesis of novel benzoic acid derivatives as striatal-enriched protein tyrosine phosphatase (STEP) inhibitors with neuroprotective properties” (Eur J Med Chem, 2025).
pIC50: −log10 of the molar value. The source made the active and inactive calls. The calls are words filed in the database; no cut-off is given here.

Legend:
[1] = molecular target: T1, Tyrosine-protein phosphatase non-receptor type 22 (Homo sapiens, UniProt Q9Y2R2); experiment: Inhibition of LYP (unknown origin)
T1 sequence (Q9Y2R2 whole entry): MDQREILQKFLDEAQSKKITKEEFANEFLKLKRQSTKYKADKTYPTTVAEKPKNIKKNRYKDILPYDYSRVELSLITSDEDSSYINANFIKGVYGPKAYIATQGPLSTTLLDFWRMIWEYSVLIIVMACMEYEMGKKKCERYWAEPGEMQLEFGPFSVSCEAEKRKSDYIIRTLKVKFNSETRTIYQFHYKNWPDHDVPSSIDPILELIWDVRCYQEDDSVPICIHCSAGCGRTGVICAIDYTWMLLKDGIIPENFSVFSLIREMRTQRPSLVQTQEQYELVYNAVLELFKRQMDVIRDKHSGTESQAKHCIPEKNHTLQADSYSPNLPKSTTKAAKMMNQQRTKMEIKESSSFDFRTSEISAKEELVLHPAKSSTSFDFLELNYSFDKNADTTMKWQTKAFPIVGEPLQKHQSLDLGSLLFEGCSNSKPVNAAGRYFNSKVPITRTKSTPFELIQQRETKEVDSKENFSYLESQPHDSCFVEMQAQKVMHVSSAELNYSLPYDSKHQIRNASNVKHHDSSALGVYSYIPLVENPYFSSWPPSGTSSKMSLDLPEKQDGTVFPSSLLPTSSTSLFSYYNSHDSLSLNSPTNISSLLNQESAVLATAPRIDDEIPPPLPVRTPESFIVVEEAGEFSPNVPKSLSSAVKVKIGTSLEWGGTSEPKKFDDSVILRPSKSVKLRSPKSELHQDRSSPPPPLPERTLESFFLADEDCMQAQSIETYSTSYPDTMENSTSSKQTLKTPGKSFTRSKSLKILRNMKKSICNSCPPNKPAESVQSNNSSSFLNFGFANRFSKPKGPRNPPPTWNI

[2] = molecular target: T2, Receptor-type tyrosine-protein phosphatase O (Homo sapiens, UniProt Q16827); experiment: Inhibition of PTPRO (unknown origin)
T2 sequence (Q16827 whole entry): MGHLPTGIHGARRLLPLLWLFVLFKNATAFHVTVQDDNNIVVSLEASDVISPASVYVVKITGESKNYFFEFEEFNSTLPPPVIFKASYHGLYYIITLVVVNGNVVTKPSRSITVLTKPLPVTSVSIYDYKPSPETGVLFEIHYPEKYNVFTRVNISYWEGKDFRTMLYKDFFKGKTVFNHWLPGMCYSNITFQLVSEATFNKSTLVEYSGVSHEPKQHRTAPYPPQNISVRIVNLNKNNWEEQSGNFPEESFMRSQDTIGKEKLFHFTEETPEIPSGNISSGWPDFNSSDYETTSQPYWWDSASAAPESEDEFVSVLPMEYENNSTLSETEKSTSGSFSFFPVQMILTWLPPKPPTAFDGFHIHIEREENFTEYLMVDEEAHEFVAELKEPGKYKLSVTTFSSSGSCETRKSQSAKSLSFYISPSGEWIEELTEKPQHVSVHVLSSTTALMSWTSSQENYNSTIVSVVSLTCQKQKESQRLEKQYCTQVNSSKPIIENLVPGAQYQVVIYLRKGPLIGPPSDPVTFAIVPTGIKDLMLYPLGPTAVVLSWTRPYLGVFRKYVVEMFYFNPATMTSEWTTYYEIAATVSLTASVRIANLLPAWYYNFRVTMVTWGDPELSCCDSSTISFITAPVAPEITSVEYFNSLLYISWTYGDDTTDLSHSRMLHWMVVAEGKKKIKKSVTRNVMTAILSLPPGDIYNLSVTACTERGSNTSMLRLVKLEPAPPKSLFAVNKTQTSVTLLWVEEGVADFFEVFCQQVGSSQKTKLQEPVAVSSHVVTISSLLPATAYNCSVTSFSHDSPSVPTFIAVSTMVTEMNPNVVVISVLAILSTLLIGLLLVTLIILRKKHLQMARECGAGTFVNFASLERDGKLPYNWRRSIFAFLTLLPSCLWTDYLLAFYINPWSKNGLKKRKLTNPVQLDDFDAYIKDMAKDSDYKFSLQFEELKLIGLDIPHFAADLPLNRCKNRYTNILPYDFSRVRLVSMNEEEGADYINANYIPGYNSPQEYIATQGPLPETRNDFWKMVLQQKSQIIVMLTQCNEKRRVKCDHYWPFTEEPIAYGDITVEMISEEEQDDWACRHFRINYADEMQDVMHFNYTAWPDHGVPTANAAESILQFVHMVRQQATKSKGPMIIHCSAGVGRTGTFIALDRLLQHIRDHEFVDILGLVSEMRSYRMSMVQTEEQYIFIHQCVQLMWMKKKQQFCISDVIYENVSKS

[3] = molecular target: T3, Tyrosine-protein phosphatase non-receptor type 1 (Homo sapiens, UniProt P18031); experiment: Inhibition of PTP1B (unknown origin)
T3 sequence (P18031 whole entry): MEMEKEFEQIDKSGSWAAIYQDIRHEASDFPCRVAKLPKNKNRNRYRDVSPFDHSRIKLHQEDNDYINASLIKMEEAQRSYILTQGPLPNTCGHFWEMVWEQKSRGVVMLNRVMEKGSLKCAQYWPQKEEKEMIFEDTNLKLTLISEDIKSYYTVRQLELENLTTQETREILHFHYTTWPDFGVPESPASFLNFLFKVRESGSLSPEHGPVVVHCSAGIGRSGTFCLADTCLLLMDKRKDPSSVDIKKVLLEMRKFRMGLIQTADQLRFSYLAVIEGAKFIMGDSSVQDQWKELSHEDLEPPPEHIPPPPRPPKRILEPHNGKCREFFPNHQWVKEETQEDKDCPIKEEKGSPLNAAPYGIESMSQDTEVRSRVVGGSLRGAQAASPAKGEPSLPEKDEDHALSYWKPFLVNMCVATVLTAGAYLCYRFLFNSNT

[4] = molecular target: T4, Tyrosine-protein phosphatase non-receptor type 2 (Homo sapiens, UniProt P17706); experiment: Inhibition of TCPTP (unknown origin)
T4 sequence (P17706 whole entry): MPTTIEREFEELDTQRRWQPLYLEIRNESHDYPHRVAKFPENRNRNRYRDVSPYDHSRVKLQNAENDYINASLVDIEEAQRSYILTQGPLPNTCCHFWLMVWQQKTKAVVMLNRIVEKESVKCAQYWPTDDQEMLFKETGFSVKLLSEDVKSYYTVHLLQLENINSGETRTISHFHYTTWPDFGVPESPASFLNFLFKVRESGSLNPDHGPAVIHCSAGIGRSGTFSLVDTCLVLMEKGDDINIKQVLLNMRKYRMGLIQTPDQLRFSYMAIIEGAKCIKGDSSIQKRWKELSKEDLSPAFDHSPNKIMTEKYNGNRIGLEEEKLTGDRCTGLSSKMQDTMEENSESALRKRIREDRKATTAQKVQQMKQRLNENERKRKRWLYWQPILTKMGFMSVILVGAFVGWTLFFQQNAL

[5] = tested on: HT-22; experiment: Cytotoxicity against mouse HT-22 cells assessed as effect on cell viability at 40 uM incubated for 48 hrs by CCK-8 assay; type: toxicity, cell-based; conditions: ht-22, 48 h
[6] = tested on: PC-12; experiment: Cytotoxicity against PC-12 cells at 40 uM incubated for 48 hrs by CCK-8 assay; type: toxicity, cell-based; conditions: rat, pc-12, 48 h
[7] = tested on: HT-22; experiment: Neuroprotective activity against glutamate-induced cytotoxicity in mouse HT-22 cells at 10 to 20 uM assessed as cell death measured after 14 hrs by CCK8 assay; type: functional, cell-based; conditions: dose 10-20 µM
[8] = tested on: HT-22; experiment: Induction of apoptosis in glutamate-induced mouse HT-22 cells assessed as reduction in C-caspase 3 activation at 10 to 20 uM incubated for 12 hrs by Western blot analysis; type: functional, cell-based; conditions: dose 10-20 µM
[9] = tested on: HT-22; experiment: Neuroprotective activity against glutamate-induced cytotoxicity in mouse HT-22 cells at 10 to 20 uM assessed as increase in cell viability measured after 14 hrs by CCK8 assay; type: functional, cell-based; conditions: dose 10-20 µM
[10] = tested on: HT-22; experiment: Effect on STEP expression in mouse HT-22 cells by Western blot analysis; type: functional, cell-based
[11] = tested on: HT-22; experiment: […] glutamate-induced ROS accumulation in mouse HT-22 cells assessed as reduction in fluorescent intensity at 10 to 20 uM incubated for 14 hrs by DCFH-DA staining based inverted fluorescence microscopic analysis; type: functional, cell-based; conditions: dose 10-20 µM
[12] = tested on: HT-22; experiment: Induction of apoptosis in glutamate-induced mouse HT-22 cells assessed as viable cells at 10 uM incubated for 12 hrs by Annexin V/PI staining based flow cytometry analysis (reference value: 92.6%); type: functional; conditions: read-out: Activity
[13] = tested on: HT-22; experiment: Induction of apoptosis in glutamate-induced mouse HT-22 cells assessed as early apoptotic cells at 10 uM incubated for 12 hrs by Annexin V/PI staining based flow cytometry analysis (reference value: 1.23 %); type: functional
[14] = tested on: HT-22; experiment: Induction of apoptosis in glutamate-induced mouse HT-22 cells assessed as late apoptotic cells at 10 uM incubated for 12 hrs by Annexin V/PI staining based flow cytometry analysis (reference value: 2.55 %); type: functional
[15] = tested on: HT-22; experiment: Induction of apoptosis in glutamate-induced mouse HT-22 cells assessed as necrotic cells at 10 uM incubated for 12 hrs by Annexin V/PI staining based flow cytometry analysis (reference value: 3.63 %); type: functional
[16] = tested on: HT-22; experiment: Induction of apoptosis in glutamate-induced mouse HT-22 cells assessed as viable cells at 20 uM incubated for 12 hrs by Annexin V/PI staining based flow cytometry analysis (reference value: 92.6%); type: functional; conditions: read-out: Activity
[17] = tested on: HT-22; experiment: Induction of apoptosis in glutamate-induced mouse HT-22 cells assessed as early apoptotic cells at 20 uM incubated for 12 hrs by Annexin V/PI staining based flow cytometry analysis (reference value: 1.23 %); type: functional
[18] = tested on: HT-22; experiment: Induction of apoptosis in glutamate-induced mouse HT-22 cells assessed as late apoptotic cells at 20 uM incubated for 12 hrs by Annexin V/PI staining based flow cytometry analysis (reference value: 2.55 %); type: functional
[19] = tested on: HT-22; experiment: Induction of apoptosis in glutamate-induced mouse HT-22 cells assessed as necrotic cells at 20 uM incubated for 12 hrs by Annexin V/PI staining based flow cytometry analysis (reference value: 3.63 %); type: functional
[20] = tested on: HT-22; experiment: Anti-apoptotic activity in glutamate-induced mouse HT-22 cells assessed as increase in BCL-2 expression at 10 to 20 uM incubated for 12 hrs by Western blot analysis; type: functional, cell-based; conditions: dose 10-20 µM
[21] = tested on: HT-22; experiment: Anti-apoptotic activity in glutamate-induced mouse HT-22 cells assessed as decrease in BAX expression at 10 to 20 uM incubated for 12 hrs by Western blot analysis; type: functional, cell-based; conditions: dose 10-20 µM
[22] = tested on: HT-22; experiment: Anti-apoptotic activity in glutamate-induced mouse HT-22 cells assessed as decrease in BAX expression at 10 to 20 uM incubated for 12 hrs by immunofluorescence analysis; type: functional, cell-based; conditions: dose 10-20 µM
[23] = tested on: HT-22; experiment: Anti-apoptotic activity in glutamate-induced mouse HT-22 cells assessed as increase in BCL-2 expression at 10 to 20 uM incubated for 12 hrs by immunofluorescence analysis; type: functional, cell-based; conditions: dose 10-20 µM
[24] = tested on: HT-22; experiment: Induction of apoptosis in glutamate-induced mouse HT-22 cells assessed as reduction in C-caspase 3 activation at 10 to 20 uM incubated for 12 hrs by immunofluorescence analysis; type: functional, cell-based; conditions: dose 10-20 µM
[25] = tested on: Cortical neurone; experiment: Neuroprotective activity against OGD/R induced C57BL/6J mouse Primary cortical neuron assessed as alleviation in neuronal apoptosis at 10 to 20 uM incubated for 12 hrs by TUNEL staining based analysis; type: functional, cell-based; conditions: dose 10-20 µM
[26] = tested on: Cortical neurone; experiment: Neuroprotective activity against OGD/R induced C57BL/6J mouse Primary cortical neuron assessed as alleviation in neuronal apoptosis at 10 to 20 uM incubated for 12 hrs by immunofluorescence analysis; type: functional, cell-based; conditions: dose 10-20 µM
[27] = tested on: Cortical neurone; experiment: Neuroprotective activity against OGD/R induced C57BL/6J mouse Primary cortical neuron assessed as increase in BCL-2 expression at 10 to 20 uM incubated for 12 hrs by immunofluorescence analysis; type: functional, cell-based; conditions: dose 10-20 µM
[28] = tested on: Cortical neurone; experiment: Neuroprotective activity against OGD/R induced C57BL/6J mouse Primary cortical neuron assessed as decrease in BAX expression at 10 to 20 uM incubated for 12 hrs by immunofluorescence analysis; type: functional, cell-based; conditions: dose 10-20 µM
[29] = tested on: Cortical neurone; experiment: Neuroprotective activity against OGD/R induced C57BL/6J mouse Primary cortical neuron assessed as decrease in C-caspase3 expression at 10 to 20 uM incubated for 12 hrs by immunofluorescence analysis; type: functional, cell-based; conditions: dose 10-20 µM

O=C(O)c1ccc(-c2ccc(/C=C3\C(=O)c4cccc([N+](=O)[O-])c4C3=O)o2)c(Cl)c1
pIC50 [1]: 4.95 | pIC50 [2]: 4.84 | pIC50 [3]: 5.05 | pIC50 [4]: 4.36 | Activity [5]: Non-toxic | Activity [6]: Non-toxic | Activity [7]: Active | Activity [8]: Active | Activity [9]: Active | Activity [10]: Active | Activity [11]: Active | viability at 10 µM [12]: 91.9% | Activity [13]: 3.15% | Activity [14]: 4.02% | Activity [15]: 0.92% | viability at 20 µM [16]: 93.2% | Activity [17]: 2.02% | Activity [18]: 3.57% | Activity [19]: 1.26% | Activity [20]: Active | Activity [21]: Active | Activity [22]: Active | Activity [23]: Active | Activity [24]: Active | Activity [25]: Active | Activity [26]: Active | Activity [27]: Active | Activity [28]: Active | Activity [29]: Active
